The target of assay [1] is T1, tubulin (α/β-tubulin heterodimer) (Sus scrofa, UniProt P02550+P02554).
T1 construct: gene TUBA1A; with α/β-tubulin heterodimer
Put plainly: cell-free tubulin polymerization assay (absorbance at […] nm), inhibition. In kind it is biochemical.

Assay [2] has as its target T1, tubulin (α/β-tubulin heterodimer). Put plainly: cell-free tubulin polymerization assay (absorbance at […] nm), enhancement. In kind it is biochemical.

T1 sequence (P02550 whole entry): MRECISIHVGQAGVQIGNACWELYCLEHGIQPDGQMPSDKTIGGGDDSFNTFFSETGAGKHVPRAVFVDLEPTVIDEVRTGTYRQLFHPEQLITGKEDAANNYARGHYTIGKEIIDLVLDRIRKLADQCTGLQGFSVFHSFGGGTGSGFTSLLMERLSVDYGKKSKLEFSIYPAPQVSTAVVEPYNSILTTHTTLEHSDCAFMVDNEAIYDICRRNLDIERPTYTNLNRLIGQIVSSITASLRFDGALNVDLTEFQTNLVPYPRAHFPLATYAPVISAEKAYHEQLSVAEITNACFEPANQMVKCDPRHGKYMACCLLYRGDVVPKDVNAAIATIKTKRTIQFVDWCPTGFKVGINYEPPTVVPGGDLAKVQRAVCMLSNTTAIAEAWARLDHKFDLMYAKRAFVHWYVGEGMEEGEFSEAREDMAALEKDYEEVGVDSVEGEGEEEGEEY
T1 sequence (P02554 whole entry): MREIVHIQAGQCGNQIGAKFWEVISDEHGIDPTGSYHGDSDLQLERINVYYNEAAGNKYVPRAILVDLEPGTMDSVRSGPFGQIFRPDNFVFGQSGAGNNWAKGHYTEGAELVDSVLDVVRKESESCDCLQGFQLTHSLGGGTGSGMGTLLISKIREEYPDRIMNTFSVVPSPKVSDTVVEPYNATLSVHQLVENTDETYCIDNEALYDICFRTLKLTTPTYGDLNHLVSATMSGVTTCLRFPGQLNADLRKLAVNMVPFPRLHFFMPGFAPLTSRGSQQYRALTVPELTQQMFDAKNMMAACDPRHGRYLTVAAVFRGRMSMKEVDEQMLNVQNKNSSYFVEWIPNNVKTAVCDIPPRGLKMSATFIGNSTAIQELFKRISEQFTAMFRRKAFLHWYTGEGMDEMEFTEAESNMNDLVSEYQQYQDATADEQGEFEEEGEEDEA

As for `COc1ccc(S(=O)(=O)Nc2ccccc2-c2ccc(C#N)cc2)cc1` [LTP-1], the “cell-free tubulin polymerization assay (absorbance at 340 nm), inhibition” value in assay [1] is “LTP-1 acted like vincristine, to inhibit tubulin polymerization in a concentration-dependent manner”. As for `CC(=O)O[C@H]1C(=O)[C@@]2(C)[C@H]([C@H](OC(=O)c3ccccc3)[C@]3(O)C[C@H](OC(=O)[C@H](O)[C@@H](NC(=O)c4ccccc4)c4ccccc4)C(C)=C1C3(C)C)[C@]1(OC(C)=O)CO[C@@H]1C[C@@H]2O` [paclitaxel], the “cell-free tubulin polymerization assay (absorbance at 340 nm), enhancement” value in assay [2] is “Paclitaxel enhanced microtubule assembly and mitotic spindle formation, whereas LTP-1 and vincristine disrupted microtubule formation (Fig. 2A)”.

The values are drawn from PMC4899784, “LTP-1, a novel antimitotic agent and Stat3 inhibitor, inhibits human pancreatic carcinomas in vitro and in vivo” (Scientific Reports, 2016).
